Measurements taken from PubChem BioAssay (NCI).
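Exposure lasted 48 hours, with cells grown in 96-well plates and compounds tested at five concentrations. GI50 marks 50% less growth. The concentration for full growth arrest is given as TGI.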 Where a SMILES comes first, the peptide text is derived from it. [ ]: non-standard residue; d: D form. 2Nal = N[CH](Cc1ccc2ccccc2c1)C(=O)O

What was measured:
Assay in all cases: growth of human tumour cells (NCI), 48 h
UO-31 renal = tested on: UO-31 renal
OVCAR-3 ovarian = tested on: OVCAR-3 ovarian
SNB-19 CNS = tested on: SNB-19 CNS
M14 melanoma = tested on: M14 melanoma
RPMI-8226 leukemia = tested on: RPMI-8226 leukemia
NCI-H226 lung = tested on: NCI-H226 lung
HOP-92 NSCLC = tested on: HOP-92 NSCLC
SK-MEL-5 melanoma = tested on: SK-MEL-5 melanoma
HS 578T breast = tested on: HS 578T breast
PC-3 prostate = tested on: PC-3 prostate

Row | SMILES | TGI (UO-31 renal) [µM] | TGI (OVCAR-3 ovarian) [µM] | TGI (SNB-19 CNS) [µM] | TGI (M14 melanoma) [µM] | TGI (RPMI-8226 leukemia) [µM] | TGI (NCI-H226 lung) [µM] | TGI (HOP-92 NSCLC) [µM] | TGI (SK-MEL-5 melanoma) [µM] | TGI (HS 578T breast) [µM] | GI50 (UO-31 renal) [µM] | GI50 (OVCAR-3 ovarian) [µM] | GI50 (M14 melanoma) [µM] | TGI (PC-3 prostate) [µM] | GI50 (RPMI-8226 leukemia) [µM]
1 | O=C(O)CC1CC=C[C@H]2c3cc4c(cc3C(=O)NC12)OCO4 (stereo not given in full) | > 75 | > 75 | > 75 | > 75 | > 75 | > 75 |  |  |  |  |  |  |  | 
2 | Cc1cc(C)nc(NS(=O)(=O)c2ccc(NC(=O)c3ccc(Cl)c4c(Nc5ccc(S(=O)(=O)N=C(N)N)cc5)c5ccccc5nc34)cc2)n1 | > 100 | > 100 | > 100 | > 100 | > 100 | > 100 | 67.7 | > 100 |  |  |  |  |  | 
3 | COc1ccc(/C=c2/sc3n(c2=O)NC(c2ccc(Cl)cc2)NN=3)cc1 (stereo not given) | > 100 | > 100 | > 100 | > 100 |  | > 100 | > 100 | > 100 |  |  |  |  |  | 
4 | CC(=O)O/N=C(Cl)/C(Cl)=N/OC(C)=O | > 100 |  | > 100 | > 100 | > 100 | > 100 | > 100 |  |  |  |  |  |  | 
5 | Cc1ccc(/C=C(\C#N)c2ccccc2)cc1 | > 100 | > 100 |  | > 100 | > 100 | > 100 | > 100 | > 100 |  |  |  |  |  | 
6 | Cc1nc(Nc2ccccc2)sc1C(=O)CC(=O)C(=O)NC12CC3CC(CC(C3)C1)C2 | > 100 | > 100 | > 100 | > 100 |  | > 100 | 89.4 | > 100 |  |  |  |  |  | 
7 | CC(C)C(NC(=O)C(CCCCN)NC(=O)C(Cc1c[nH]c2ccccc12)NC(=O)C(Cc1ccc(O)cc1)NC(=O)C(CS)NC(=O)C(N)Cc1ccc2ccccc2c1)C(=O)NC(CS)C(=O)NC(C(N)=O)C(C)O (stereo not given) (H-[2Nal]CYWKVCT-NH2; configuration not given here) | > 100 | > 100 | > 100 | > 100 | > 100 | > 12.5 |  | > 12.5 | > 12.5 | > 100 | > 100 | > 100 | > 12.5 | > 100
8 | CN(C)CCNC(=O)c1cccc2ncc(-c3ccccc3)nc12 | > 67.8 | 66.8 | 78.7 | 27.2 |  | 31.3 | 59.1 | 24.1 |  |  |  |  |  | 
9 | NNC(=S)Nc1cccc(Cl)c1 | > 100 | 92.3 | > 100 | > 100 | > 100 |  |  | > 100 | > 100 |  |  |  | > 100 | 
10 | CN(C)CCC1(C2=CCCC2)CC/C(=C\c2ccccc2Cl)C1=O (stereo not given) | 20.1 | 28.9 | 27.8 | 26.8 | > 100 |  | 26.3 | 26.7 |  |  |  |  |  | 
11 | OC1CCC[C@@H]1Sc1ccccc1 (stereo not given in full) | > 100 | > 100 | > 100 | > 100 | > 100 |  | > 100 | > 100 |  |  |  |  |  | 
12 | COc1ccc(C[C@H](N)C(=O)N2C[C@@H](CO)C[C@@H](n3cnc4c(N(C)C)ncnc43)C2)cc1 | > 100 | > 100 | > 100 | > 100 | > 100 |  | > 100 | > 100 |  |  |  |  |  | 
